One may read the inhibition as the share of the control response that was lost under treatment. Higher therefore signals a strong effect. One may read the IC50 as the concentration that gives 50% inhibition. Higher therefore signals weaker potency in that assay.

For one experiment, the system named is MDA-MB-436 cells. The experiment is described as follows: Colony formation assay. The experiment is classed as cell-based. The conditions noted are these: Homo sapiens, seeding density 2000-4000 cells/well and treatment time 12-14 days. As to the method:
A colony formation assay was performed to assess the activity of test compounds. MDA-MB-436 cells were harvested, counted and seeded in culture medium (DMEM+10% FBS+1% PS) at a specified density in a volume of 600-1000 μL per well in a 24-well cell culture plate. The plates were incubated overnight at 37° C. in a 5% CO2 incubator. Test compounds were dissolved in DMSO and added to the plate in duplicate wells for each concentration tested. On day 7, the supernatant was removed and 1000 μL of freshly diluted compounds were added to the plates. The plates were returned to incubator to continue incubation. After treatment with the compounds for a specified number of days, e.g. 10-14 days, detection was performed. For detection, the plate was incubated for 20 min after removing the medium and adding fixing solution. Subsequently, the fixing solution was removed and the plates washed with PBS. The plates were then stained with staining solution (0.1% (w/v) crystal violet). After removal of the staining solution, the plates were washed with PBS and scanned on a LICOR imager using the 700 nm channel.

For the next experiment, the target named is PARP1 (Homo sapiens, UniProt P09874). Description: PARP1 fluorescence polarization binding assay. The conditions noted are these: binding IC50, GST-tagged PARP1 20 nM, PARPi-FL 3 nM. Put shortly:
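Competitive FP binding: 20 nM GST-tagged PARP1 preincubated with compound 30 min at RT, then 3 nM PARPi-FL probe for 4 h at RT; buffer 50 mM Tris pH 8.0, 10 mM MgCl2, 150 mM NaCl. 10-point 3-fold dilutions; % inhibition from mP versus controls, IC50 by four-parameter fit, reported in ranges.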

Where a name gives a salt, the structure may show the parent alone.

PARP1, sequence (P09874 whole entry): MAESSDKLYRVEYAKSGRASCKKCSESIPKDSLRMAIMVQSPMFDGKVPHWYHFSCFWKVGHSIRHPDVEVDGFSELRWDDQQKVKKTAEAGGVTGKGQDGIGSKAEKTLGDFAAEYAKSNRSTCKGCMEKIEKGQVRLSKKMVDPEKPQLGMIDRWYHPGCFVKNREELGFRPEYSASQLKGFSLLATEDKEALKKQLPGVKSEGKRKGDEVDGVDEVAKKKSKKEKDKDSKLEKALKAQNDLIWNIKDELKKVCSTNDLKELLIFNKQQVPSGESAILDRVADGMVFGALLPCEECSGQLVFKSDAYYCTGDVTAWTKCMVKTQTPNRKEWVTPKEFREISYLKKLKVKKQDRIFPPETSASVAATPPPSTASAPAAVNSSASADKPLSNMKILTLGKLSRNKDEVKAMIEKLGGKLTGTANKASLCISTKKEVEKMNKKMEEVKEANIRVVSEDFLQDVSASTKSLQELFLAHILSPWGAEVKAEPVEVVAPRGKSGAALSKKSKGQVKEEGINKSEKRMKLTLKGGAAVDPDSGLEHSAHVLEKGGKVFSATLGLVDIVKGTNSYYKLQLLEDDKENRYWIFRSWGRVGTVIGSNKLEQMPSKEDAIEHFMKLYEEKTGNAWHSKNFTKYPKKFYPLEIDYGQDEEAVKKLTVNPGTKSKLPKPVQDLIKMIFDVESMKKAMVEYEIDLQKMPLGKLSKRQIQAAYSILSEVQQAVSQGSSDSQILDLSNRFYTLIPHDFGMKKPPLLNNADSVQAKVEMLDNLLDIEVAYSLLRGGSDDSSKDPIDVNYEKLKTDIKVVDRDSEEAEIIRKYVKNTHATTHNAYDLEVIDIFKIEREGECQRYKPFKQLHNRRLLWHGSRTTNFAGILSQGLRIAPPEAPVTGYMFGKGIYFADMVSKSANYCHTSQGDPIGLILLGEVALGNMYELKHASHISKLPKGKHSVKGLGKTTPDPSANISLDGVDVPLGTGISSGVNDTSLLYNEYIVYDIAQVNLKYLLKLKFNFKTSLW

In the case of `CCn1c(=O)[nH]c2cc(CN3CCN(c4ccc(C(=O)NC)nc4)CC3)ccc2c1=O` [Compound 3, 5-(4-((3-ethyl-2,4-dioxo-1,2,3,4-tetrahydroquinazolin-7-yl)methyl)piperazin-1-yl)-N-methylpicolinamide formate], in the experiment with MDA-MB-436 cells, the inhibition at 0.3 µM was at least 66.7%, the inhibition at 3 µM was at least 66.7% and the inhibition at 30 µM was at least 66.7%. This compound yielded a concentration for half-maximal inhibition (IC50) on PARP1 of under 100 nM.
With `CCn1c(=O)[nH]c2cc(CN3CCN(c4ccc(C(=O)NC)nc4C)CC3)ccc2c1=O` [Compound 16, 5-{4-[(3-ethyl-2,4-dioxo-1H-quinazolin-7-yl)methyl]piperazin-1-yl}-N,6-dimethylpyridine-2-carboxamide], in the experiment with MDA-MB-436 cells, the inhibition at 0.3 µM is at least 66.7%, the inhibition at 3 µM was at least 66.7% and the inhibition at 30 µM was at least 66.7%. On PARP1, the IC50 was under 100 nM.
In the experiment on MDA-MB-436 cells, `CCn1c(=O)[nH]c2cc(CN3CCN(c4ccc(C(=O)NC)nc4C)CC3)ccc2c1=S` [Compound 51, 5-(4-((3-ethyl-2-oxo-4-thioxo-1,2,3,4-tetrahydroquinazolin-7-yl)methyl)piperazin-1-yl)-N,6-dimethylpicolinamide formate] registered an inhibition at 0.3 µM of at least 66.7%, an inhibition at 3 µM of at least 66.7% and an inhibition at 30 µM of at least 66.7%. Also, the half-inhibitory concentration (IC50) on PARP1 is under 100 nM.
With `CCn1c(=O)[nH]c2cc(CN3CCN(c4ccc(C(=O)NC)nc4C)CC3)sc2c1=O` [Compound 188, 5-(4-((3-ethyl-2,4-dioxo-1,2,3,4-tetrahydrothieno[3,2-d]pyrimidin-6-yl)methyl)piperazin-1-yl)-N,6-dimethylpicolinamide], in the experiment on MDA-MB-436 cells, the inhibition at 0.3 µM is at least 66.7%, the inhibition at 3 µM is at least 66.7% and the inhibition at 30 µM is at least 66.7%. This compound also yielded an IC50 at PARP1 of under 100 nM.
Consider `CCN1Cc2ccc(CN3CCN(c4ccc(C(=O)NC)nc4)CC3)cc2NC1=O` [Compound 196, 5-(4-((3-ethyl-2-oxo-1,2,3,4-tetrahydroquinazolin-7-yl)methyl)piperazin-1-yl)-N-methylpicolinamide formate], for which, in the experiment on MDA-MB-436 cells, the inhibition at 0.3 µM is under 33.3%, the inhibition at 3 µM fell in the range of 33.3 to 66.7% and the inhibition at 30 µM was 33.3 to 66.7%. At PARP1, this compound had an IC50 of under 100 nM.

The values above are taken from patent US20240132449A1, “HETEROCYCLIC COMPOUNDS AND METHODS OF USE THEREOF” (1cBio, Inc., priority 2022, published 2024).
